Experimental data: US6713301B1, “Artificial T helper cell epitopes as immune stimulators for synthetic peptide immunogens” (United Biomedical, Inc., priority 1998, dated 2004)

Tested on: human IgE myeloma protein
Assay: Human IgE ELISA of guinea pig immune sera
Set-up: species or system guinea pigs
Conditions: in vivo
Description: These peptide immunogens were used to immunize groups of 3 guinea pigs using 100 μg/dose, formulated in CFA at week 0, IFA at weeks 3 and 6, and administered intramuscularly. For comparison, a group of two animals were immunized with a peptide/KLH carrier protein conjugate at 200 μg/dose, similarly administered. ELISA results of serum samples collected at week 8 are shown. In the ELISA a human IgE myeloma protein (American Biosystem, Inc. cat no. A113) was used as the solid-phase immunoadsorbant. The procedure used was identical to the peptide-based ELISAs described previously, except IgE myeloma was used as the solid phase immunoadsorbant. […] The inclusion of the Inv domain sequence (SEQ ID NO:78) augmented the immunogenicity, as shown by the enhanced immunogenicity of SEQ ID NO:99 over SEQ ID NO:98.

How did the “Log10 ELISA (average for animals of the group)” value turn out when “98 (KKKIITITRIITIITTIDGGCGETYQSRVTHPHLPRALMRSTTKC) [compound 98]” was run?
Its value is 2.35 Log10.

What about the No. responding of the same molecule?
Its No. responding is 3/3.

B1: 99 (peptide)
chain: TAKSKKFPSYTATYQFGGKKKIITITRIITIITTIDGGCGETYQSRVTHPHLPRALMRSTTKC
Which “Log10 ELISA (average for animals of the group)” value does the source give for B1 here?
The value was 3.28 Log10.

What about the No. responding of the same molecule?
The No. responding was 3/3.
